From PubChem BioAssay (NCI)
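Step 1: Grow cells in 96-well plates. Step 2: Expose to compound for 48 hours at 5 concentrations. Step 3: Interpolate endpoints linearly; if unreached, use highest concentration. The concentration for 50% growth inhibition is given as GI50. The concentration for full growth arrest is given as TGI.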

What was measured:
Assay in all cases: growth of human tumour cells (NCI), 48 h
[1] = test system: RPMI-8226 leukemia
[2] = test system: HCC-2998 colon
[3] = test system: RXF 393 renal
[4] = test system: IGROV1 ovarian
[5] = test system: SNB-19 CNS
[6] = test system: PC-3 prostate
[7] = test system: A549 NSCLC
[8] = test system: HCT-116 colon
[9] = test system: SF-539 CNS
[10] = test system: MCF7 breast
[11] = test system: NCI-H23 lung
[12] = test system: SK-MEL-5 melanoma
[13] = test system: TK-10 renal
[14] = test system: NCI-H226 lung
[15] = test system: NCI-H522 lung
[16] = test system: HOP-92 NSCLC
[17] = test system: UACC-257 melanoma
[18] = test system: SF-295 CNS
[19] = test system: MALME-3M melanoma
[20] = test system: SR leukemia
[21] = test system: K-562 leukemia
[22] = test system: SN12C renal
[23] = test system: OVCAR-3 ovarian
[24] = test system: 786-0 renal
[25] = test system: SW-620 colon
[26] = test system: KM12 colon
[27] = test system: HL-60(TB) leukemia
[28] = test system: SK-OV-3 ovarian
[29] = test system: CAKI-1 renal
[30] = test system: HT29 colon
[31] = test system: M14 melanoma
[32] = test system: BT-549 breast
[33] = test system: ACHN renal
[34] = test system: SK-MEL-28 melanoma
[35] = test system: EKVX NSCLC
[36] = test system: SF-268 CNS
[37] = test system: UACC-62 melanoma
[38] = test system: A498 renal
[39] = test system: MDA-MB-435
[40] = test system: T-47D breast
[41] = test system: HOP-62 NSCLC
[42] = test system: U251 CNS
[43] = test system: DU-145 prostate
[44] = test system: MOLT-4 leukemia
[45] = test system: OVCAR-8 ovarian
[46] = test system: MDA-MB-468 breast
[47] = test system: NCI/ADR-RES ovarian
[48] = test system: LOX IMVI melanoma
[49] = test system: OVCAR-4 ovarian
[50] = test system: CCRF-CEM leukemia
[51] = test system: OVCAR-5 ovarian
[52] = test system: NCI-H460 lung
[53] = test system: HS 578T breast
[54] = test system: COLO 205 colon
[55] = test system: HCT-15 colon

SMILES: O=C(CSc1nc2sc3c(c2c(=O)n1-c1ccc(Cl)cc1)CCCC3)N/N=C/C=C/c1ccccc1
- GI50 [1]: 4.51 µM
- TGI [1]: 34 µM
- GI50 [2]: 2750 nM
- TGI [2]: 7.05 µM
- GI50 [3]: 1930 nM
- TGI [3]: 4.75 µM
- GI50 [4]: 14.1 µM
- TGI [4]: 35.7 µM
- GI50 [5]: 18.2 µM
- TGI [5]: > 100 µM
- GI50 [6]: 3.04 µM
- TGI [6]: 17.9 µM
- GI50 [7]: 3.58 µM
- TGI [7]: 15.5 µM
- GI50 [8]: 3.03 µM
- TGI [8]: 13 µM
- GI50 [9]: 24.6 µM
- TGI [9]: > 100 µM
- GI50 [10]: 3.35 µM
- TGI [10]: 18.4 µM
- GI50 [11]: 2120 nM
- TGI [11]: 5.78 µM
- GI50 [12]: 3.12 µM
- TGI [12]: 10.8 µM
- GI50 [13]: 2800 nM
- TGI [13]: 9.84 µM
- GI50 [14]: 5.19 µM
- TGI [14]: 23 µM
- GI50 [15]: 3.17 µM
- TGI [15]: 12.6 µM
- GI50 [16]: 3.91 µM
- TGI [16]: 25.9 µM
- GI50 [17]: 11.8 µM
- TGI [17]: 87.8 µM
- GI50 [18]: 4.92 µM
- TGI [18]: 22.4 µM
- GI50 [19]: 1990 nM
- TGI [19]: 4.85 µM
- GI50 [20]: 26.5 µM
- TGI [20]: > 100 µM
- GI50 [21]: 4.68 µM
- TGI [21]: > 100 µM
- GI50 [22]: 18 µM
- TGI [22]: > 100 µM
- GI50 [23]: 100 µM
- TGI [23]: > 100 µM
- GI50 [24]: 5.51 µM
- TGI [24]: 20.7 µM
- GI50 [25]: 2700 nM
- TGI [25]: 8.75 µM
- GI50 [26]: 16.7 µM
- TGI [26]: 63.6 µM
- GI50 [27]: > 100 µM
- TGI [27]: > 100 µM
- GI50 [28]: 14.2 µM
- TGI [28]: 38.4 µM
- GI50 [29]: 43.1 µM
- TGI [29]: > 100 µM
- GI50 [30]: 2610 nM
- TGI [30]: 6.48 µM
- GI50 [31]: 3.44 µM
- TGI [31]: 15 µM
- GI50 [32]: 3.15 µM
- TGI [32]: 7.65 µM
- GI50 [33]: 4.22 µM
- TGI [33]: 29.2 µM
- GI50 [34]: 4.23 µM
- TGI [34]: 16.5 µM
- GI50 [35]: 8.81 µM
- TGI [35]: > 100 µM
- GI50 [36]: 24.9 µM
- TGI [36]: > 100 µM
- GI50 [37]: 2840 nM
- TGI [37]: 10.9 µM
- GI50 [38]: 7.71 µM
- TGI [38]: 25.4 µM
- GI50 [39]: 5.28 µM
- TGI [39]: 22.5 µM
- GI50 [40]: 2390 nM
- TGI [40]: 6.92 µM
- GI50 [41]: 3.31 µM
- TGI [41]: 13 µM
- GI50 [42]: 3.3 µM
- TGI [42]: 11.7 µM
- GI50 [43]: 5.3 µM
- TGI [43]: > 100 µM
- GI50 [44]: 3.57 µM
- TGI [44]: 12.9 µM
- GI50 [45]: 3.17 µM
- TGI [45]: 11.7 µM
- GI50 [46]: 1850 nM
- TGI [46]: 4.11 µM
- GI50 [47]: 3.58 µM
- TGI [47]: 16 µM
- GI50 [48]: 9.02 µM
- TGI [48]: 22.2 µM
- GI50 [49]: 3.42 µM
- TGI [49]: 15.9 µM
- GI50 [50]: 11.5 µM
- TGI [50]: 69.9 µM
- GI50 [51]: 4.87 µM
- TGI [51]: 27.7 µM
- GI50 [52]: 3.14 µM
- TGI [52]: 10.6 µM
- GI50 [53]: 4.64 µM
- TGI [53]: 56.5 µM
- GI50 [54]: 1710 nM
- TGI [54]: 3.4 µM
- GI50 [55]: 2960 nM
- TGI [55]: 10.4 µM
